{"source": "ChEMBL document CHEMBL1687869", "about": "“Cycloartane triterpenes isolated from Combretum quadrangulare in a screening program for death-receptor expression enhancing activity” (2011)", "key": {"[1]": {"molecular_target": "Tumor necrosis factor receptor superfamily member 10B (Homo sapiens) (UniProt O14763)", "sequence (O14763 whole entry)": "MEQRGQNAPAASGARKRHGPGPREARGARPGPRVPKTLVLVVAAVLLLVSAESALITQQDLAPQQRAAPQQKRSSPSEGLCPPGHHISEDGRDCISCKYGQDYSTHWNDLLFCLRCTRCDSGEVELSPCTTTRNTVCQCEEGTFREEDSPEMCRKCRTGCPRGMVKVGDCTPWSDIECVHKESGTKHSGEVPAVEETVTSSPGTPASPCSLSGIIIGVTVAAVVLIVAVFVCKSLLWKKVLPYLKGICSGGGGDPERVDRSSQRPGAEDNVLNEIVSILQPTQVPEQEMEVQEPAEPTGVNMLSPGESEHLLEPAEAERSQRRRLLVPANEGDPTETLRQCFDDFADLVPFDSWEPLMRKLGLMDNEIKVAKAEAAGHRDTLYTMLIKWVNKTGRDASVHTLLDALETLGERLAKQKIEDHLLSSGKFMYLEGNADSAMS", "assay": "Increase in DR5 promoter activity in SacI gene expressing human DLD1 cells at 17.5 to 70 uM after 24 hrs by luciferase reporter gene assay relative to control", "assay_type": "cell-based", "settings": "DLD-1"}, "AGS [2]": {"system": "AGS", "assay": "Cytotoxicity against TRAIL-resistant human AGS cells assessed as cell viability at 17.5 uM after 24 hrs by fluorometric microculture assay", "assay_type": "functional", "settings": "read-out: Activity"}, "[3]": {"molecular_target": "Tumor necrosis factor receptor superfamily member 10B (Homo sapiens) (UniProt O14763)", "assay": "Increase in DR5 promoter activity in SacI gene expressing human DLD1 cells at 17.5 uM after 24 hrs by luciferase reporter gene assay relative to control", "assay_type": "cell-based", "settings": "DLD-1"}, "AGS [4]": {"system": "AGS", "assay": "Cytotoxicity against TRAIL-resistant human AGS cells assessed as cell viability at 17.5 uM after 24 hrs by fluorometric microculture assay in presence of 100 ng/ml TRAIL", "assay_type": "functional"}, "AGS [5]": {"system": "AGS", "assay": "Cytotoxicity against TRAIL-resistant human AGS cells assessed as cell viability at 12.5 uM after 24 hrs by fluorometric microculture assay in presence of 100 ng/ml TRAIL", "assay_type": "functional"}}, "note": "Calls of active or inactive are those of the source. The rule behind the calls is not given here."}
{"compound": "COC(C)(C)/C=C/C[C@@H](C)[C@H]1CC[C@@]2(C)[C@@H]3[C@@H](O)C[C@H]4C(C)(C)C(=O)CC[C@@]45C[C@@]35CC[C@]12C", "values": [{"measurement": "fold change (FC)", "setting": "[1]", "value": 2.5}]}
{"compound": "O=c1cc(-c2ccc(O)c(O)c2)oc2cc(O)cc(O)c12", "note": "[LUTEOLIN]", "values": [{"measurement": "viability at 17.5 µM", "setting": "AGS [2]", "value": 51, "unit": "%"}, {"measurement": "Activity", "setting": "[3]", "value": "Active"}]}
{"compound": "COc1ccc(-c2oc3cc(O)cc(O)c3c(=O)c2OC)cc1O", "values": [{"measurement": "fold change (FC)", "setting": "[1]", "value": 6.7}, {"measurement": "Activity", "setting": "AGS [4]", "value": 24, "unit": "%"}, {"measurement": "Activity", "setting": "AGS [5]", "value": 27, "unit": "%"}]}
{"compound": "COc1cc(-c2oc3cc(O)cc(O)c3c(=O)c2OC)cc(O)c1OC", "values": [{"measurement": "fold change (FC)", "setting": "[1]", "value": 2.2}]}
{"compound": "C=C(C)[C@@H](O)CC[C@@H](C)[C@H]1CC[C@@]2(C)[C@@H]3[C@@H](OC(C)=O)C[C@H]4[C@](C)(C(=O)O)[C@@H](O)CC[C@@]45C[C@@]35CC[C@]12C", "values": [{"measurement": "fold change (FC)", "setting": "[1]", "value": 1.7}]}
{"compound": "COc1c(O)cc(-c2oc3cc(O)cc(O)c3c(=O)c2OC)cc1O", "values": [{"measurement": "fold change (FC)", "setting": "[1]", "value": 2}]}
